According to the supplement of paper PMC10307832:

Tests used:
Experiment in all cases: relative viability (nuclei count vs DMSO), 5 days (fraction); higher = more cells survive
[1] = system: LC-2-ad
Method in brief: (§1)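 A single step with final 0.05% Triton X-100, 1% formaldehyde and 1 ug/ml Hoechst fixed the cells and stained nuclei 5 days after treatment. Lung cancer cell lines in 1536-well plates had been treated by pin tool the day after seeding with one drug alone or a fixed anchor-drug dose plus five library-drug doses (not always all listed) in √10 steps, and nuclei were counted on 4× images. Relative viability is the ratio of nuclei in treated wells to nuclei in vehicle wells, taken as the median of duplicate plates.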

[2] = system: HCC-827
Method in brief: as §1

[3] = system: NCI-H1755
Method in brief: as §1

[4] = system: NCI-H596
Method in brief: as §1

[5] = system: 201T
Method in brief: as §1

[6] = system: LU99A
Method in brief: as §1

[7] = system: RERF-LC-KJ
Method in brief: as §1

[8] = system: HCC-15
Method in brief: as §1

[9] = system: EKVX
Method in brief: as §1

[10] = system: NCI-H3122
Method in brief: as §1

[11] = system: NCI-H1993
Method in brief: as §1

[12] = system: NCI-H1975
Method in brief: as §1

[13] = system: HCC-366
Method in brief: as §1

[14] = system: COR-L 105
Method in brief: as §1

[15] = system: HCC-78
Method in brief: as §1

[16] = system: COR-L23
Method in brief: as §1

[17] = system: BEN
Method in brief: as §1

[18] = system: NCI-H1944
Method in brief: as §1

[19] = system: NCI-H1734
Method in brief: as §1

[20] = system: SK-LU-1
Method in brief: as §1

[21] = system: NCI-H1650
Method in brief: as §1

[22] = system: LXF-289
Method in brief: as §1

[23] = system: HARA
Method in brief: as §1

Cc1cnc(-c2cnc(NCCNc3ccc(C#N)cn3)nc2-c2ccc(Cl)cc2Cl)[nH]1 + C[C@@H](Oc1cc(-c2cnn(C3CCNCC3)c2)cnc1N)c1c(Cl)ccc(F)c1Cl [Crizotinib] (partner 1 µM)
relative viability ([1]; first compound 0.08 µM): 0.489 | relative viability ([1]; first compound 2.53 µM): 0.426 | relative viability ([2]; first compound 0.08 µM): 0.929 | relative viability ([2]; first compound 0.8 µM): 0.882 | relative viability ([2]; first compound 2.53 µM): 0.923 | relative viability ([3]; first compound 0.08 µM): 0.853 | relative viability ([3]; first compound 0.253 µM): 0.856 | relative viability ([3]; first compound 0.8 µM): 0.824 | relative viability ([3]; first compound 2.53 µM): 0.804 | relative viability ([4]; first compound 0.08 µM): 0.921 | relative viability ([4]; first compound 0.253 µM): 0.906 | relative viability ([4]; first compound 0.8 µM): 0.968 | relative viability ([4]; first compound 2.53 µM): 0.927 | relative viability ([5]; first compound 0.08 µM): 1.07 | relative viability ([5]; first compound 0.253 µM): 0.982 | relative viability ([5]; first compound 0.8 µM): 1.02 | relative viability ([5]; first compound 2.53 µM): 0.998 | relative viability ([6]; first compound 0.08 µM): 0.621 | relative viability ([6]; first compound 0.253 µM): 0.459 | relative viability ([6]; first compound 0.8 µM): 0.534 | relative viability ([6]; first compound 2.53 µM): 0.592 | relative viability ([7]; first compound 0.08 µM): 0.833 | relative viability ([7]; first compound 0.253 µM): 0.712 | relative viability ([7]; first compound 0.8 µM): 0.794 | relative viability ([7]; first compound 2.53 µM): 0.846 | relative viability ([8]; first compound 0.08 µM): 0.781 | relative viability ([8]; first compound 0.253 µM): 0.659 | relative viability ([8]; first compound 0.8 µM): 0.799 | relative viability ([8]; first compound 2.53 µM): 0.803 | relative viability ([9]; first compound 0.08 µM): 0.938 | relative viability ([9]; first compound 0.253 µM): 0.823 | relative viability ([9]; first compound 0.8 µM): 0.854 | relative viability ([9]; first compound 2.53 µM): 0.993 | relative viability ([10]; first compound 0.08 µM): 0.285 | relative viability ([10]; first compound 0.253 µM): 0.319 | relative viability ([10]; first compound 0.8 µM): 0.253 | relative viability ([10]; first compound 2.53 µM): 0.304 | relative viability ([11]; first compound 0.08 µM): 0.804 | relative viability ([11]; first compound 0.253 µM): 0.861 | relative viability ([11]; first compound 0.8 µM): 0.884 | relative viability ([11]; first compound 2.53 µM): 0.954 | relative viability ([12]; first compound 0.08 µM): 0.968 | relative viability ([12]; first compound 0.253 µM): 0.907 | relative viability ([12]; first compound 0.8 µM): 0.906 | relative viability ([12]; first compound 2.53 µM): 0.569 | relative viability ([13]; first compound 0.08 µM): 0.654 | relative viability ([13]; first compound 0.253 µM): 0.408 | relative viability ([13]; first compound 0.8 µM): 0.534 | relative viability ([13]; first compound 2.53 µM): 0.422 | relative viability ([14]; first compound 0.08 µM): 0.869 | relative viability ([14]; first compound 0.253 µM): 0.716 | relative viability ([14]; first compound 0.8 µM): 0.706 | relative viability ([14]; first compound 2.53 µM): 0.529 | relative viability ([15]; first compound 0.08 µM): 0.349 | relative viability ([15]; first compound 0.253 µM): 0.336 | relative viability ([15]; first compound 0.8 µM): 0.297 | relative viability ([15]; first compound 2.53 µM): 0.362 | relative viability ([16]; first compound 0.08 µM): 0.619 | relative viability ([16]; first compound 0.253 µM): 0.605 | relative viability ([16]; first compound 0.8 µM): 0.833 | relative viability ([16]; first compound 2.53 µM): 0.722 | relative viability ([17]; first compound 0.08 µM): 0.908 | relative viability ([17]; first compound 0.253 µM): 0.787 | relative viability ([17]; first compound 0.8 µM): 0.846 | relative viability ([17]; first compound 2.53 µM): 0.876 | relative viability ([18]; first compound 0.08 µM): 1.11 | relative viability ([18]; first compound 0.8 µM): 1.16 | relative viability ([18]; first compound 2.53 µM): 1.1 | relative viability ([19]; first compound 0.08 µM): 0.65 | relative viability ([19]; first compound 0.253 µM): 0.636 | relative viability ([19]; first compound 0.8 µM): 0.647 | relative viability ([19]; first compound 2.53 µM): 0.631 | relative viability ([20]; first compound 0.08 µM): 1.01 | relative viability ([20]; first compound 0.253 µM): 0.918 | relative viability ([20]; first compound 0.8 µM): 1.17 | relative viability ([20]; first compound 2.53 µM): 1.3 | relative viability ([21]; first compound 0.08 µM): 0.92 | relative viability ([21]; first compound 0.253 µM): 0.909 | relative viability ([21]; first compound 0.8 µM): 1.07 | relative viability ([21]; first compound 2.53 µM): 0.844 | relative viability ([22]; first compound 0.08 µM): 0.852 | relative viability ([22]; first compound 0.253 µM): 0.796 | relative viability ([22]; first compound 0.8 µM): 0.839 | relative viability ([22]; first compound 2.53 µM): 0.87 | relative viability ([23]; first compound 0.08 µM): 1.02 | relative viability ([23]; first compound 0.253 µM): 0.956 | relative viability ([23]; first compound 0.8 µM): 1.06 | relative viability ([23]; first compound 2.53 µM): 1.12

Cc1cnc(-c2cnc(NCCNc3ccc(C#N)cn3)nc2-c2ccc(Cl)cc2Cl)[nH]1 + CC(=O)Nc1cccc(-n2c(=O)n(C3CC3)c(=O)c3c(Nc4ccc(I)cc4F)n(C)c(=O)c(C)c32)c1 [Trametinib] (partner 0.02 µM)
relative viability ([1]; first compound 0.08 µM): 0.998 | relative viability ([1]; first compound 0.8 µM): 0.953 | relative viability ([1]; first compound 2.53 µM): 0.863 | relative viability ([2]; first compound 0.08 µM): 0.597 | relative viability ([2]; first compound 0.253 µM): 0.473 | relative viability ([2]; first compound 0.8 µM): 0.522 | relative viability ([2]; first compound 2.53 µM): 0.434 | relative viability ([3]; first compound 0.08 µM): 0.865 | relative viability ([3]; first compound 0.253 µM): 0.755 | relative viability ([3]; first compound 0.8 µM): 0.771 | relative viability ([3]; first compound 2.53 µM): 0.771 | relative viability ([4]; first compound 0.08 µM): 0.877 | relative viability ([4]; first compound 0.253 µM): 0.704 | relative viability ([4]; first compound 0.8 µM): 0.782 | relative viability ([4]; first compound 2.53 µM): 0.91 | relative viability ([5]; first compound 0.08 µM): 0.746 | relative viability ([5]; first compound 0.8 µM): 0.707 | relative viability ([5]; first compound 2.53 µM): 0.753 | relative viability ([6]; first compound 0.08 µM): 0.549 | relative viability ([6]; first compound 0.253 µM): 0.556 | relative viability ([6]; first compound 0.8 µM): 0.53 | relative viability ([6]; first compound 2.53 µM): 0.534 | relative viability ([7]; first compound 0.08 µM): 0.951 | relative viability ([7]; first compound 0.253 µM): 0.847 | relative viability ([7]; first compound 0.8 µM): 0.832 | relative viability ([7]; first compound 2.53 µM): 0.771 | relative viability ([8]; first compound 0.08 µM): 0.449 | relative viability ([8]; first compound 0.253 µM): 0.391 | relative viability ([8]; first compound 0.8 µM): 0.383 | relative viability ([8]; first compound 2.53 µM): 0.422 | relative viability ([9]; first compound 0.08 µM): 0.391 | relative viability ([9]; first compound 0.253 µM): 0.328 | relative viability ([9]; first compound 0.8 µM): 0.256 | relative viability ([9]; first compound 2.53 µM): 0.358 | relative viability ([10]; first compound 0.08 µM): 0.262 | relative viability ([10]; first compound 0.8 µM): 0.246 | relative viability ([10]; first compound 2.53 µM): 0.233 | relative viability ([11]; first compound 0.08 µM): 0.506 | relative viability ([11]; first compound 0.253 µM): 0.536 | relative viability ([11]; first compound 0.8 µM): 0.454 | relative viability ([11]; first compound 2.53 µM): 0.52 | relative viability ([12]; first compound 0.08 µM): 0.35 | relative viability ([12]; first compound 0.253 µM): 0.383 | relative viability ([12]; first compound 0.8 µM): 0.353 | relative viability ([12]; first compound 2.53 µM): 0.339 | relative viability ([13]; first compound 0.08 µM): 0.397 | relative viability ([13]; first compound 0.253 µM): 0.308 | relative viability ([13]; first compound 0.8 µM): 0.292 | relative viability ([13]; first compound 2.53 µM): 0.326 | relative viability ([14]; first compound 0.08 µM): 0.481 | relative viability ([14]; first compound 0.253 µM): 0.383 | relative viability ([14]; first compound 0.8 µM): 0.324 | relative viability ([14]; first compound 2.53 µM): 0.415 | relative viability ([15]; first compound 0.08 µM): 0.876 | relative viability ([15]; first compound 0.253 µM): 0.669 | relative viability ([15]; first compound 0.8 µM): 0.621 | relative viability ([15]; first compound 2.53 µM): 0.828 | relative viability ([16]; first compound 0.08 µM): 0.763 | relative viability ([16]; first compound 0.253 µM): 0.565 | relative viability ([16]; first compound 0.8 µM): 0.642 | relative viability ([16]; first compound 2.53 µM): 0.585 | relative viability ([17]; first compound 0.08 µM): 1.25 | relative viability ([17]; first compound 0.253 µM): 0.879 | relative viability ([17]; first compound 0.8 µM): 1.04 | relative viability ([17]; first compound 2.53 µM): 1.42 | relative viability ([18]; first compound 0.08 µM): 0.423 | relative viability ([18]; first compound 0.8 µM): 0.463 | relative viability ([18]; first compound 2.53 µM): 0.371 | relative viability ([19]; first compound 0.08 µM): 0.801 | relative viability ([19]; first compound 0.253 µM): 0.641 | relative viability ([19]; first compound 0.8 µM): 0.775 | relative viability ([19]; first compound 2.53 µM): 0.72 | relative viability ([20]; first compound 0.08 µM): 0.489 | relative viability ([20]; first compound 0.253 µM): 0.61 | relative viability ([20]; first compound 0.8 µM): 0.563 | relative viability ([20]; first compound 2.53 µM): 0.707 | relative viability ([21]; first compound 0.08 µM): 0.659 | relative viability ([21]; first compound 0.253 µM): 0.47 | relative viability ([21]; first compound 0.8 µM): 0.365 | relative viability ([21]; first compound 2.53 µM): 0.469 | relative viability ([22]; first compound 0.08 µM): 0.704 | relative viability ([22]; first compound 0.253 µM): 0.6 | relative viability ([22]; first compound 0.8 µM): 0.674 | relative viability ([22]; first compound 2.53 µM): 0.69 | relative viability ([23]; first compound 0.08 µM): 0.746 | relative viability ([23]; first compound 0.253 µM): 0.68 | relative viability ([23]; first compound 0.8 µM): 0.623 | relative viability ([23]; first compound 2.53 µM): 0.708
